Reference: US20030134342A1, “Binding-specific peptides, binding-specific carrier molecules, and uses thereof” (priority 2001, published 2003)
Where no end group is shown, it is not given here.

What was measured:
CML cells = assay: ELISA binding of phage displaying peptides to fixed cells: CML cells; set-up: species or system human; conditions: in words
Description: (§1) Preliminary experiments were performed to identify specific peptides by using cells from patients diagnosed with CLL, CML, and AML. The screening was performed by incubating the cells with the phage-peptides from the library. This incubation allows interaction between the peptide and the cell. The binding step was followed by several washes to eliminate free phage. Phage bound on the cell surface was eluted.
(§2) After the last round of binding with one cell type, the eluted phage was plated on an agar plate with the appropriate selection antibiotics. Each individual colony, corresponding to one individual peptide sequence, was amplified in a 96-well plate. After purification, these peptides were tested for their ability to bind to the cells in a microtiter plate by ELISA.
(§3) Each peptide was dispensed in a 96-well plate, containing cells previously fixed. Each colony was tested in a triplicate assay with the appropriate controls. After incubation of cells with an individual clone, the wells were washed to eliminate free phage. The bound phages were detected by using a monoclonal anti-M13 antibody/horseradish peroxidase (HRP) conjugate. After addition of the HRP substrate, the intensity of the coloration was measured by spectrophotometry. The light absorbance values (optical density values, O.D. values) are proportional to the number of phage bound to the cells.
(§4) The binding to various cell types were examined to evaluate the cellular specificity of the phage clones. For example, the clones from phage eluted from CLL patient cells were assayed for their ability to bind cells from an AML patient. Cells from normal donors (non-leukemic) were also evaluated to ascertain leukemia cell specificity.
(§5) Peripheral blood and bone marrow samples were collected from patients after informed consent. The samples were collected in tubes containing sodium citrate. Mononuclear cells were isolated by Ficoll-Hypaque density gradient separation and collection of the cells at a density of 1.077 g/mL.
(§6) The wells of a 96-well plate were pre-treated with 100 μL of poly-L-lysine (0.01 mg/mL in phosphate-buffered saline, 120 mM NaCl, 2.7 mM KCl, 10 mM phosphate buffer, “PBS”) for 2-16 hours at room temperature. After draining the poly-L-lysine from the wells, the excess poly-L-lysine was removed from the wells by flicking. The cells were washed with PBS, then suspended in PBS and diluted to a final concentration of […]. The cell suspension (200 μL; 250,000 cells) were added to each well needed for the assay.
(§7) The plates were centrifuged at 500 g for about 5 minutes in a microplate carrying centrifuge when available. The cells were fixed to the wells through the addition of glutaraldehyde (100 μL of 0.5%) and incubating at room temperature for about an hour. The glutaraldehyde was removed and the cell-coated wells washed once with PBS. Alternatively, the cells were permitted to settle to the well bottoms for about 4 hours at 37° C., and the glutaraldehyde fixative was added after removing the PBS.
(§8) A glycine solution (200 μl of 0.1 M glycine in PBS) containing bovine serum albumin (BSA; 1%) was added to the wells and permitted to incubate for 30 minutes to block excess glutaraldehyde. The glycine was removed, and the cell-coated wells washed once with PBS. A sodium pyrophosphate solution (200 μL of 0.3 mg/mL NaPPi) was added to the wells and incubated for an hour at room temperature to neutralize lysine charges. The pyrophosphate solution was removed and the wells washed once with PBS. Multiwell microtiter plates with cell-coated wells were stored at 4° C. with fresh PBS solution in the coated wells.
(§9) The cells to be studied for binding were suspended in PBS and adsorbed onto to a poly-L-lysine pretreated 96-well plate and kept at 4° C. The PBS was removed from the wells and an H2O2 solution in PBS (6% H2O2 in 200 μL/well) was added. […]

AML cells = assay: ELISA binding of phage displaying peptides to fixed cells: AML cells; set-up: species or system human; conditions: in words
Description: as §1, §2, §3, §4, §5, §6, §7, §8, §9

CLL cells = assay: ELISA binding of phage displaying peptides to fixed cells: CLL cells; set-up: species or system human; conditions: in words
Description: as §1, §2, §3, §4, §5, §6, §7, §8, §9

[1] = test system: all myeloid cells, both malignant and nonmalignant; assay: ELISA binding of phage displaying peptides to fixed cells: all myeloid cells; set-up: species or system human; conditions: in words
Description: as §1, §2, §3, §4, §5, §6, §7, §8, §9

AML bone marrow cells = assay: Methylcellulose culture of AML bone marrow cells with peptides: proliferation (colonies) and differentiation (morphology); format: cell-based, human; conditions: for Activation of Differentiation: patient numbers; for Activation of Proliferation GM-CSF / Cell Differentiation GM-CSF: with GM-CSF; for induction of differentiation of the patient cells (FIG. 8): AML bone marrow cells, 14 days methylcellulose; for Activation of Proliferation (Patient No.) +GM-CSE: peptide with GM-CSF
Description: The effect of various peptides were analyzed for their biological activity on cells from a patient with acute myelogenous leukemia. The AML cells were cultured into a semi-solid medium of methylcellulose in order to determine the cloning efficiency and the differentiation of the cells. The various peptides were introduced into the semi-solid cell culture at a concentration of 10^−4 M (0.1 mM) peptide. After 14 days continuous incubation of the cell cultures, the morphology of the cells were analyzed. The data are shown in FIG. 7 for the cultures and show the percentage of immature cells in the culture (solid black), the percentage of small myeloblasts (solid white), the percentage of young cells (dark gray), and the relative percentage of monocytes to […] (light gray). The data regarding the biological response of AML bone marrow cells in the presence of the various peptides is shown in the table below.

[2] = test system: normal peripheral blood cells (lymphocytes and granulocytes); assay: ELISA binding of phage displaying peptides to fixed cells: normal peripheral blood cells; set-up: species or system human; conditions: in words
Description: as §1, §2, §3, §4, §5, §6, §7, §8, §9

[3] = test system: human bone marrow AML cells; assay: Effect of phage-peptides on differentiation, cell number and viability of freshly obtained AML patient bone marrow cells cultured seven days; format: cell-based; conditions: for Number of Cells / Percent Differentiation / Viability: phage-peptides; for Percent differentiated in Specimen 1 / Percent differentiated in Specimen 2: peptides in bacteriophage, AML cells cultured seven days in vitro
From the text: The effect of various phage-peptides were studied on the differentiation of cells from two AML patients.

[4] = test system: human myeloid leukemia cell line HL60; assay: Viability of HL60 cells, trypan blue; format: cell-based
Description: Studies were conducted of the effects of the free G5 12-8B (artificially synthesized), phage displaying G5 12-8B, the free A2 11-24 peptide, phage displaying the A2 11-24 peptide, a combination of the free G5 and A2 peptides, a combination of pure peptides plus phage displaying the peptides, and several concentrations of peptide.

[5] = fraction, not explained, peptide alone
[6] = numbers of the AML patients whose cells responded

NETTVREY [F10 11-24]
binding of phage displaying the peptide to CML cells (CML cells): bind
binding of phage displaying the peptide to AML cells (AML cells): bind
binding of phage displaying the peptide to CLL cells (CLL cells): not
binding of phage displaying the peptide to all myeloid cells, both malignant and nonmalignant [1]: bind

EFQQWSGK [G5 12-8B no Cys]
Activation of Differentiation (AML bone marrow cells): 3

IEETARKG [A2 11-24 no Cys]
Activation of Proliferation (AML bone marrow cells; [5]): 4/14
Cell Differentiation (AML bone marrow cells; [5]): 4/13
Activation of Proliferation GM-CSF (AML bone marrow cells; fraction, not explained): 1/2
Cell Differentiation GM-CSF (AML bone marrow cells; fraction, not explained): 2/2
activity on cell differentiation compared with the peptide with cysteine residues (FIG. 8) (AML bone marrow cells; in words): higher activity
induction of differentiation of the patient cells (FIG. 8) (AML bone marrow cells; in words): able to induce the differentiation
Activation of Proliferation (Patient No.) +GM-CSE (AML bone marrow cells; [6]): 11

CNNATFEDGC [G2 12-8A]
Activation of Proliferation (AML bone marrow cells; [5]): 6/14
Cell Differentiation (AML bone marrow cells; [5]): 2/12
Inhibition of Proliferation (AML bone marrow cells; [5]): 1/14
Activation of Proliferation GM-CSF (AML bone marrow cells; fraction, not explained): 2/5
Cell Differentiation GM-CSF (AML bone marrow cells; fraction, not explained): 2/5

VSEDIYDA [E5 12-8B]
binding of phage displaying the peptide to blood cells (lymphocytes or granulocytes) [2]: bind
binding of phage displaying the peptide to CLL cells (CLL cells): bind

VSEDIYDA [F1 12-8B]
Number of Cells ([3]; Patient 1): 0.82 106
Percent Differentiation ([3]; Patient 1): 34%
Number of Cells ([3]; Patient 2): 0.22 106
Percent Differentiation ([3]; Patient 2): 52%
Percent differentiated in Specimen 1 [3]: 34%
Percent differentiated in Specimen 2 [3]: 52%
binding of phage displaying the peptide to CML cells (CML cells): binds and bind
binding of phage displaying the peptide to AML cells (AML cells): binds and bind
binding of phage displaying the peptide to CLL cells (CLL cells): not
binding of phage displaying the peptide to all myeloid cells, both malignant and nonmalignant [1]: bind

NNATFEDG [G2 12-8A]
Number of Cells ([3]; Patient 1): 0.93 106
Percent Differentiation ([3]; Patient 1): 27.5%
Number of Cells ([3]; Patient 2): 0.31 106
Percent Differentiation ([3]; Patient 2): 52%
Percent differentiated in Specimen 1 [3]: 28%
Percent differentiated in Specimen 2 [3]: 51%

CIEETAAKGC [Peptide A2A, A2 with R replaced by A]
Activation of Proliferation (AML bone marrow cells; [5]): 4/11
Cell Differentiation (AML bone marrow cells; [5]): 3/8
Inhibition of Proliferation (AML bone marrow cells; [5]): 1/11
Activation of Proliferation GM-CSF (AML bone marrow cells; fraction, not explained): 2/4
Cell Differentiation GM-CSF (AML bone marrow cells; fraction, not explained): 1/4
activity on cell differentiation (FIG. 9, another example) (AML bone marrow cells; in words): have a biological activity
activity on cell differentiation compared with the peptide with cysteine residues (FIG. 8) (AML bone marrow cells; in words): higher activity
induction of differentiation of the patient cells (FIG. 8) (AML bone marrow cells; in words): able to induce the differentiation
Inhibition of Proliferation (AML bone marrow cells; numbers of the AML patients whose cells responded, peptide alone): 10
Activation of Differentiation (AML bone marrow cells): 3

IEETARKG [peptide A2]
Day 5 Viability ([4]; 5 day): 97%
Day 7 Viability ([4]; 7 day): 95%
Day 9 Viability ([4]; 9 day): 74%

VSEDIYDA [C10 12-8B]
binding of phage displaying the peptide to CML cells (CML cells): bind
binding of phage displaying the peptide to AML cells (AML cells): bind
binding of phage displaying the peptide to CLL cells (CLL cells): bind
binding of phage displaying the peptide to all myeloid cells, both malignant and nonmalignant [1]: bind

EFQQWSGK [G2 11-24]
Number of Cells ([3]; Patient 1): 1.11 106
Percent Differentiation ([3]; Patient 1): 16.2%
Number of Cells ([3]; Patient 2): 0.25 106
Percent Differentiation ([3]; Patient 2): 39%
Percent differentiated in Specimen 1 [3]: 16%
Percent differentiated in Specimen 2 [3]: 39%
binding of phage displaying the peptide to CML cells (CML cells): bind and binds
binding of phage displaying the peptide to AML cells (AML cells): bind and binds

CNELHMKQHC [G7 12-8B]
Activation of Proliferation (AML bone marrow cells; [5]): 2/6
Cell Differentiation (AML bone marrow cells; [5]): 4/5
Activation of Proliferation GM-CSF (AML bone marrow cells; fraction, not explained): 0/2
Cell Differentiation GM-CSF (AML bone marrow cells; fraction, not explained): 0/2

DEKRGPNE [B4(1)]
Number of Cells ([3]; Patient 1): 1.3 106
Number of Cells ([3]; Patient 2): 0.25 106
Percent Differentiation ([3]; Patient 2): 53%
Percent differentiated in Specimen 2 [3]: 53%
binding of phage displaying the peptide to CML cells (CML cells): bind
binding of phage displaying the peptide to AML cells (AML cells): bind

NHVCSRLG [B6 11-24]
binding of phage displaying the peptide to all myeloid cells, both malignant and nonmalignant [1]: bind

granulocyte-macrophage colony-stimulating factor [GM-CSF]
Number of Cells ([3]; Patient 1): 1.57 106
Percent Differentiation ([3]; Patient 1): 21%
Viability ([3]; Patient 1): 80%
Number of Cells ([3]; Patient 2): 0.87 106
Percent Differentiation ([3]; Patient 2): 16.5%
Viability ([3]; Patient 2): 89%
Percent differentiated in Specimen 1 [3]: 21%
Percent differentiated in Specimen 2 [3]: 17%

CNNATVEDEC [C8 12-8B]
Activation of Proliferation (AML bone marrow cells; [5]): 2/8
Cell Differentiation (AML bone marrow cells; [5]): 1/8
Activation of Proliferation GM-CSF (AML bone marrow cells; fraction, not explained): 1/2
Cell Differentiation GM-CSF (AML bone marrow cells; fraction, not explained): 1/2

NELHMKQH [G6 12-8B]
binding of phage displaying the peptide to all myeloid cells, both malignant and nonmalignant [1]: bind

EFQQWSGK [B7(1)]
binding of phage displaying the peptide to CML cells (CML cells): bind
binding of phage displaying the peptide to AML cells (AML cells): bind
binding of phage displaying the peptide to CLL cells (CLL cells): not

CNHVCSRLGC [B6 12-8B]
Activation of Proliferation (AML bone marrow cells; [5]): 5/14
Cell Differentiation (AML bone marrow cells; [5]): 3/13
Inhibition of Proliferation (AML bone marrow cells; [5]): 3/14
Activation of Proliferation GM-CSF (AML bone marrow cells; fraction, not explained): 3/5
Cell Differentiation GM-CSF (AML bone marrow cells; fraction, not explained): 2/5

EFQQWSGK [H3 11-24]
binding of phage displaying the peptide to CLL cells (CLL cells): bind

NNATVEDE [F9 11-24]
binding of phage displaying the peptide to all myeloid cells, both malignant and nonmalignant [1]: bind

CDEKRGPNEC [B4 C10]
Activation of Proliferation (AML bone marrow cells; [5]): 1/6
Cell Differentiation (AML bone marrow cells; [5]): 2/4
Activation of Proliferation GM-CSF (AML bone marrow cells; fraction, not explained): 1/2
Cell Differentiation GM-CSF (AML bone marrow cells; fraction, not explained): 0/2
Activation of Proliferation (Patient No.) (AML bone marrow cells; numbers of the AML patients whose cells responded, peptide alone, 10^−4 M, 14 days): 9
Activation of Proliferation (Patient No.) +GM-CSE (AML bone marrow cells; [6]): 11
